In patent US6413764B1, “Human metabotropic glutamate receptors, nucleic acids encoding same and uses thereof” (Merck & Co., Inc., priority 1993, dated 2002):
Like-named read-outs stand apart in the source and are kept apart here.

Assays:
human mGluR5a receptor [1] = biological target: T1, human mGluR5a receptor (Homo sapiens, UniProt P41594); assay: Automated fluorescence assay (fluo-3) in transiently transfected HEK 293 cells; format: cell-based; design: expressed in transfected cells; host or cells: HEK 293 cells, transient CaPO4 transfection
T1 sequence (P41594 21-1180 isoform P41594-2 limits assumed): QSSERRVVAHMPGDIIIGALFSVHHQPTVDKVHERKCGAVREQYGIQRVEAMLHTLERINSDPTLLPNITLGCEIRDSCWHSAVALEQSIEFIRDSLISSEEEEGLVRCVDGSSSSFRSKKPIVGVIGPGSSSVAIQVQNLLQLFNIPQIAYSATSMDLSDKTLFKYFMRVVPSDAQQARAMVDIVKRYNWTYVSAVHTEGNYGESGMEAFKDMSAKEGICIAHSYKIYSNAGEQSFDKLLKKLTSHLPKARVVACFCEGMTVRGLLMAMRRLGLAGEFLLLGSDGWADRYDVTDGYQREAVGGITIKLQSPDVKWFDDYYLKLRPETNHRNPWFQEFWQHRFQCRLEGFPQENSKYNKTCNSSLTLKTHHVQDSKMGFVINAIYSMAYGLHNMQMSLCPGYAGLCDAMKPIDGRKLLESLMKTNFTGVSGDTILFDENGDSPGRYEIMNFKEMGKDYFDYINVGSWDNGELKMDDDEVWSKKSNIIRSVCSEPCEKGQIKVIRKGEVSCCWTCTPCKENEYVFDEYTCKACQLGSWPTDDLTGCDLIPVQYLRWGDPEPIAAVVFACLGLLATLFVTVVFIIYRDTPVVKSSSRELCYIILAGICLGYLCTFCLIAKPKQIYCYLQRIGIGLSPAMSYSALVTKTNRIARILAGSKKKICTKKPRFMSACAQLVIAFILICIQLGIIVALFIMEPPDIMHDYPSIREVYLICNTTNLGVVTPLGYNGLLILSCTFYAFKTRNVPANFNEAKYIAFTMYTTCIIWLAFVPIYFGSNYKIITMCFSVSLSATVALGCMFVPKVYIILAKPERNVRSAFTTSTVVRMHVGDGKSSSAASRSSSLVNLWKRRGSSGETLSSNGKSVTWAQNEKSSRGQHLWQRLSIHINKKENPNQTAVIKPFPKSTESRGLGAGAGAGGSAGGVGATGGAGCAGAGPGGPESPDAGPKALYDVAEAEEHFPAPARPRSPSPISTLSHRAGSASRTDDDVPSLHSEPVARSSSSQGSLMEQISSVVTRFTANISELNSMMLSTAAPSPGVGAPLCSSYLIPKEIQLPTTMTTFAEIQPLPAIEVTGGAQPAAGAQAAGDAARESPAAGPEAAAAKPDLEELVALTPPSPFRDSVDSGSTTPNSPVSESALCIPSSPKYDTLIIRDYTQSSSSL
Procedure: HEK 293 cells were transiently transfected with DNA encoding mGluR5a (constructs mGluR5a2 and mGluR5a3 and construct MMTV-hmGluR5a) receptors. Approximately 2×10^6 HEK cells were transiently transfected with 5-18 μg (or 0.18 μg in some transfections, see Example 3.C.2.) of the indicated plasmid according to standard CaPO4 transfection procedures [see Wigler et al. (1979) Proc. Natl. Acad. Sci. USA 76:1373-1376]. In addition, 0.5-2 μg (or 0.18 μg in some transfections, see Example 3.C.2) of plasmid pCMVβgal (Clontech Laboratories, Palo Alto, Calif.), which contains the Escherichia coli β-galactosidase gene fused to the CMV promoter, were co-transfected as a reporter gene for monitoring the efficiency of transfection. The transfectants were analyzed for β-galactosidase expression by direct staining of the product of a reaction involving β-galactosidase and the X-gal substrate [Jones (1986) EMBO 5:3133-3142]. Transfectants can also be analyzed for β-galactosidase expression by measurement of β-galactosidase activity [Miller (1972) in Experiments in Molecular Genetics, pp.352-355, Cold Spring Harbor Press].
HEK 293 cells that were transiently transfected with 5 μg of MMTV-hmGluR5A were co-transfected with 5 μg of pRShGR (ATCC accession no. 67200) which contains DNA encoding a glucocorticoid receptor operatively linked to the Rous Sarcoma virus (RSV) LTR promoter. Co-expression of glucocorticoid receptors in these cells should insure that induction of expression of the MMTV promoter-mGluR5a DNA occurs upon addition of glucocorticoid (e.g., dexamethasone) to the cells.
Untransfected HEK 293 cells (or HEK 293 cells transiently transfected with pCMV-T7-3) and HEK 293 cells that had been transfected with mGluR5a-encoding DNA were plated in the wells of a 96-well microtiter dish (Nunc Catalog No. 1-6708, distributed by Alameda Industries, Escondido, Calif.) that had been precoated with poly-L-lysine at a density of 2×10^5 cells/well and loaded with fluo-3 by incubation for 2 hours at 20° C. in a medium containing 20 μM fluo-3, 0.2% Pluronic F-127 in HBS (125 mM NaCl, 5 mM KCl, 1.8 mM CaCl2, 0.62 MM MgCl2, 20 mM glucose, 20 mM HEPES, pH 7.4). The cells were then washed with assay buffer (i.e. HBS). The microtiter dish was then placed into a fluorescence plate reader (e.g., Fluoroskan II, Lab Products International, Ltd., Raleigh, N.C.), and the basal fluorescence of each well was measured and recorded before addition of metabotropic receptor-modulating compounds such as quisqualate, glutamate, trans-ACPD (1-amino-cyclopentane-1,3-dicarboxylic acid), 1S,3R-ACPD, AP3 (2-amino-3-phosphonopropionate) AP5 (2-amino-5-phosphonopentanoate), and CNQX (6-cyano-7-nitroquinoxaline-2,3-dione) to the wells. The fluorescence of the wells was monitored repeatedly (75 readings at 0.63-sec intervals) following addition of agonist.

human mGluR5a receptor [2] = biological target: T1, human mGluR5a receptor; assay: Phosphatidylinositol hydrolysis (IP1) assay in HEK 293 cells transiently transfected with mGluR5a3; format: cell-based; design: expressed in transfected cells; host or cells: HEK 293 cells, transient CaPO4 transfection
Procedure: HEK 293 cells that had been transiently transfected with mGluR5a3 were plated in 24-well microtiter plates at a density of 8×10^5 cells/well. After the cells were allowed to settle and adhere to the bottom of the plate for a few hours, 2 μCi of [^3H]-myo-inositol (Amersham catalog # PT6-271, Arlington Heights, Ill.; specific activity=17.7 Ci/mmol) was added to each well and incubated overnight at 37° C. The next day, the cells were examined under a Nikon Diaphot inverted microscope to assess the health of the cells morphologically as well as to determine if the wells contained a confluent layer of cells. Media was then aspirated and the cells were washed twice with 0.5 ml Krebs bicarbonate buffer [117.9 mM NaCl, 4.72 mM KCl, 2.54 mM CaCl2, 1.18 mM MgSO4, 1.19 mM KH2PO4, 25 mM NaHCO3, 11.1 mM dextrose (equilibrated with 95% O2, 5% CO2, pH 7.4)]. The cells were incubated for 45 min. at room temperature. The buffer was then aspirated from each well and the cells were washed and incubated in 0.5 ml/well for 45 min at room temperature. The buffer was aspirated from each well, and the cells were then incubated for 20 min at 37° C. with 450 μl Krebs-bicarbonate buffer containing 10 mM LiCl instead of 10 mM NaCl (to block hydrolysis of IP1 to inositol and inorganic phosphate) and 10 mM unlabeled myo-inositol.
To begin treatment of the cells with metabotropic receptor-modulating compounds, 50 μl of Krebs-bicarbonate buffer (control) or 10× the final concentration of the compound was added to each well and the incubation was continued for 40 min. Incubation was terminated by addition of 1 ml ice-cold methanol to each well.
In order to isolate IP1 from the cells, the cells were removed from the plates by scraping with plastic pipette tips, and the cell suspension was transferred to 12×75 mm glass tubes. The tubes were thoroughly vortexed, and a 150-μl aliquot, i.e., one-tenth of the total volume, of each reaction mixture was transferred to another tube for protein determination. The water-soluble inositol phosphates were separated from the radiolabelled membrane phospholipids by extraction in 1 ml chloroform. The tubes were incubated at room temperature for 30 min before centrifugation at 500×g for 5 min at 4° C. The aqueous (top) layer containing the [^3H]-inositol phosphates was transferred to 10-ml syringes connected to Accell QMA SEP-PAK columns (Millipore; Calif.), which were attached to an Amersham Superseparator apparatus that was modified to allow collection into 20-ml scintillation vials. Water (10 ml) was added to the cartridge to remove [^3H]-inositol precursor, followed by 4 ml 0.02 M triethylammonium hydrogen carbonated buffer (TEAB, Fluka; N.Y.). To separately remove [^3H]-IP1, [^3H]-IP2 and [^3H]-IP3 from the cartridge, 4 ml of 0.1 M TEAB, 4 ml of 0.3 M TEAB and 4 ml of 0.4 M TEAB were sequentially added to the cartridge and the separate eluate fractions were collected in large scintillation vials. Ecolume cocktail (15 ml; ICN; California) was added to each vial for subsequent scintillation counting to determine the amount of each IP in the separate fractions. Protein concentration was determined using the Bio-Rad Protein Micro-Assay (Bio-Rad, Richmond, Calif.).

[3] = HEK 293 transiently transfected with mGluR5a3 or MMTV-hmGluR5a, fluo-3
[4] = cells transfected with mGluR5a3, varying amounts of compound
[5] = 1 mM, HEK 293 transfected with 0.18 μg of mGluR5a3
[6] = varying amounts of compound, cells transfected with mGluR5a3

SMILES	dose-response of peak fluorescence (human mGluR5a receptor [1])	fluorescence change in response to application of compound (human mGluR5a receptor [1])	fluorescence change in response to compound (human mGluR5a receptor [1])	IP1 levels on treatment with compound (human mGluR5a receptor [2])	dose-response of IP1 levels (human mGluR5a receptor [2])	fluorescence change in response to application of compound (human mGluR5a receptor [1]; [3])	dose-response of peak fluorescence (human mGluR5a receptor [1]; [4])	IP1 levels on treatment with compound (human mGluR5a receptor [2]; [5])	dose-response of IP1 levels (human mGluR5a receptor [2]; [6])
N[C@@H](Cn1oc(=O)[nH]c1=O)C(=O)O [quisqualate]	magnitude of the peak fluorescence increased with increasing concentration	increased	increased	detectable increases in IP1 levels	IP1 levels increased with increasing concentration	–	–	–	–
NC1(C(=O)O)CCC(C(=O)O)C1 (stereo not drawn) [1S,3R-ACPD, 1-amino-cyclopentyl-1,3-dicarboxylic acid]	–	–	–	–	–	increased	magnitude of the peak fluorescence increased with increasing concentration	detectable increases in IP1 levels	IP1 levels increased with increasing concentration
N[C@@H](CCC(=O)O)C(=O)O [glutamate]	–	–	–	–	–	increased	magnitude of the peak fluorescence increased with increasing concentration	detectable increases in IP1 levels	IP1 levels increased with increasing concentration
